Source: article PMC4912613, “A broad analysis of resistance development in the malaria parasite” (Nature Communications, 2016)
Read-outs that look alike come from different tables or passages of the source.

Legend:
[1] = test system: TM90C2A (DHFR, folate pathway; compared with 3D7); assay: Cross-resistance EC50 assay, TM90C2A; format: cell-based; settings: Plasmodium falciparum, 48 h, read-out: TM90C2A (3D7 Parent) Average EC50
Excerpt: (§1) To evaluate potential overlapping activity against known antimalarial drug targets, we performed dose-response studies with each compound against our assembled set of drug-resistant lines and their corresponding parents, in an asexual blood stage proliferation assay (Table 1). Comparisons were made to the drug-sensitive strain 3D7 when a parent was unavailable (TM90C2A, W2 and Dd2). As laboratories conducted EC50 assays with different strains and protocols, all comparisons were made between assays from the same laboratory and under the same assay conditions. Compounds displaying >5-fold EC50 shifts relative to the parent or sensitive strain were flagged as having potentially non-novel targets. Average fold shifts per strain ranged from 0.82 to 2.34, with a median of 1.23 indicating there was not common resistance to any one resistant clone. No resistance patterns were observed when classifying the compounds based on chemical structure, but this was not surprising given the diversity of compounds chosen. On the other hand, given that these confirmed compounds were derived from larger unconfirmed hit lists to which some filtration criteria may have been applied (for example, elimination of obvious dihydrofolate reductase inhibitors[32]), some[10][11][12][13] pre-existing bias may exist in the set.
The 48-h assay was carried out in a 96-well format following standard methods using the ^3H-hypoxanthine incorporation assay. The raw EC50 values corresponding to this assay can be found in Supplementary Data 3. Briefly, this assay relies on the parasite incorporation of labelled hypoxanthine that is proportional to P. falciparum growth. A culture of parasitized RBCs (0.5% parasitemia with a percentage of ring stage higher than 70% of total parasitemia, 2.0% haematocrit) in RPMI-1640, […] and 5 μM hypoxanthine was exposed to drug serial dilutions. Plates were incubated for 24 h at 37 °C, 5% CO2, 5% O2 and 90% N2. After 24 h of incubation, ^3H-hypoxanthine was added and plates were incubated for an additional 24-h period. After that, parasites were harvested on a glass fibre filter using a TOMTEC Cell Harvester 96. Filters were dried and melt-on scintillator sheets were used to determine the incorporation of ^3H-hypoxanthine. Radioactivity was measured using a microbeta counter. Data were normalized using the incorporation of the positive (parasitized RBCs without drug) and negative (same culture with artesunate at 2 μM) controls. All assays were conducted in triplicate using three independently grown cultures, and EC50 values were determined using the XLfit add-in module for Excel (version 2.3.1) from Grafit (version 5.3.1.3), where parameter h is the assay hill slope, x is the compound concentration and y is the inhibition of growth effect. The XLfit equation is: […]
EC50 values for each strain were compared with those of the corresponding parent strain to determine fold-shift changes and identify resistance. To minimize the cause variance between assays, all comparisons were conducted between strains assayed under identical conditions. A one-way ANOVA followed by a Dunnet's post-test was conducted in GraphPad Prism to identify significant changes between the parent and resistant strain.

[2] = test system: P. berghei exoerythrocytic forms; assay: Liver-stage P. berghei hepatocyte invasion and development assay (luminescence, HepG2); format: cell-based, Plasmodium berghei; settings: for EC50 fold shift compared to asexual stage: Liver Stage EC50: liver stage EC50 / 3D7 EC50
Excerpt: As drugs that eliminate multiple stages of the parasite lifecycle will be critical components in global efforts to eliminate malaria, we were interested in knowing whether the compounds in our study had additional activities against either the liver and/or transmission stages of the parasite lifecycle. To determine this, we first evaluated the compounds in additional phenotypic assays. The first assay was a P. berghei hepatocyte invasion and development assay, which predicts causal prophylactic activity. Hepatocyte toxicity was additionally tested to identify false-positive activity in the liver stage due to host-cell toxicity. Assays were executed in duplicate using a 12-point EC50 curve at starting concentrations of 5 μM or 50 μM (Supplementary Table 1).
Liver-stage activity was determined by pretreating hepatic human cells (HepG2) for 2 h with compound in 1,536-well plates infected with freshly dissected P. berghei sporozoites. After 48 h of incubation, the viability of P. berghei exoerythrocytic forms was measured by luminescence reaction light output using BrightGlo (Promega). Varying levels of compound concentration were used (5 μM or 50 μM) due to the stock concentration supplied.

[3] = test system: 15 resistant strains and their parents; assay: Cross-resistance panel, asexual blood stage proliferation EC50 fold shifts (all strains); format: cell-based, Plasmodium falciparum; settings: for EC50 fold-shifts in resistant lines relative to parent clones: loss of efficacy in some resistant lines
Excerpt: as §1, with “On the other hand, given that these confirmed compounds were derived from larger unconfirmed hit lists to which some filtration criteria may have been applied (for example, elimination of obvious dihydrofolate reductase inhibitors[32]), some[10][11][12][13] pre-existing bias may exist in the set.” left out
(§2) The 48-h assay was carried out in a 96-well format following standard methods using the ^3H-hypoxanthine incorporation assay. […] Radioactivity was measured using a microbeta counter. […] All assays were conducted in triplicate using three independently grown cultures, and EC50 values were determined using the XLfit add-in module for Excel (version 2.3.1) from Grafit (version 5.3.1.3), where parameter h is the assay hill slope, x is the compound concentration and y is the inhibition of growth effect. […]
(§3) Alternatively, a SYBR Green-based proliferation approach was used for the 72-h assay, as previously described. […] Following incubation, 10 × SYBR Green I (Invitrogen; supplied in 10,000 × concentration) in lysis buffer ([…], 5 mM EDTA, 0.16% Saponin wt per vol and 1.6% Triton X vol per vol) was added to the wells and the plates were incubated overnight at room temperature before plate reading. […]

[4] = Hepatocyte toxicity; format: cell-based, human; settings: human; read-out: HepG2 EC50 (hepatocyte toxicity)
Procedure, shortened: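 HepG2 cells were pretreated with compound for 2 h, then infected with fresh P. berghei sporozoites. After 48 h, exoerythrocytic-form viability was read by BrightGlo luminescence; hepatocyte toxicity was tested in parallel. EC50s came from 12-point curves run in duplicate, starting at 5 μM or 50 μM.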

[5] = test system: PfATP4-Mut2 (PfATP4 P412L, parent W2); assay: Cross-resistance EC50 assay, PfATP4-Mut2; format: cell-based, Plasmodium falciparum
Excerpt: as §1, with “On the other hand, given that these confirmed compounds were derived from larger unconfirmed hit lists to which some filtration criteria may have been applied (for example, elimination of obvious dihydrofolate reductase inhibitors[32]), some[10][11][12][13] pre-existing bias may exist in the set.” left out
as §2, §3

[6] = test system: PfATP4-Mut3 (PfATP4 F917L, parent 3D7); format: cell-based, Plasmodium falciparum
Excerpt: as §1, with “No resistance patterns were observed when classifying the compounds based on chemical structure, but this was not surprising given the diversity of compounds chosen. On the other hand, given that these confirmed compounds were derived from larger unconfirmed hit lists to which some filtration criteria may have been applied (for example, elimination of obvious dihydrofolate reductase inhibitors[32]), some[10][11][12][13] pre-existing bias may exist in the set.” left out
as §2

[7] = test system: PfATP4-Mut1 (PfATP4 V178I, parent W2); assay: Cross-resistance EC50 assay, PfATP4-Mut1; format: cell-based, Plasmodium falciparum; settings: loss of efficacy
Excerpt: as §1, with “No resistance patterns were observed when classifying the compounds based on chemical structure, but this was not surprising given the diversity of compounds chosen. On the other hand, given that these confirmed compounds were derived from larger unconfirmed hit lists to which some filtration criteria may have been applied (for example, elimination of obvious dihydrofolate reductase inhibitors[32]), some[10][11][12][13] pre-existing bias may exist in the set.” left out
as §2

[8] = test system: resistant parasites generated by MMV007564; assay: Cross-resistance to parasites selected with MMV007564; format: cell-based, Plasmodium falciparum
Excerpt: While we found an overall lack of pre-existing resistance, analysing the onset of resistance was critical, as compounds resulting in rapid resistance are not ideal for clinical development. We therefore sought to create drug-resistant parasites using a variety of different selection methods. We implemented either a high-dose method or a ramp-up/pulse method for our in vitro selections. Two of the 50 compounds—MMV028895 and MMV665824—were removed from the selection study during experimentation. […] Out of the remaining 48 compounds, resistant parasites were obtained for 23 (Supplementary Data 1). As each selection was performed in triplicate with three independent cultures, we succeeded in generating a total of 66 resistant cultures. Parasites resistant to MMV026596 were not obtained despite 100 days of selection, but the cultures acquired hypersensitivity to mefloquine with a 10-fold reduction in EC50 compared with its parental line, 3D7. For the remaining 24 compounds, acquisition of resistant parasites was unsuccessful despite numerous attempts over an extensive period of time.

[9] = Plasmodium berghei, HepG2, 48 h, P. berghei sporozoites, HepG2, 48 h, read-out: Liver Stage EC50

Structure (SMILES)	EC50 [1] [µM]	EC50 [2, 9] [µM]	EC50 fold shift compared to asexual stage: Liver Stage EC50 [2]	other results
Cc1c(C)n(Cc2ccc(F)cc2)c2ccc(C(=O)NCc3ccco3)cc12 [MMV008149]	0.908	0.882	1.15	EC50 fold-shifts in resistant lines relative to parent clones [3]: > 5 fold
CN(C)S(=O)(=O)c1cc(-c2ccc3nccc(-c4cccc(S(N)(=O)=O)c4)c3c2)cnc1N [MMV024038]	0.194	0.0108	0.05	EC50 ([2]; Plasmodium berghei, HepG2, text values, read-out: Liver stage EC50 (PfLuc EC50)): 0.01 µM; EC50 [4]: 0.146 µM
COc1ccccc1CNC(=O)CCn1c(=O)[nH]c2ccsc2c1=O [MMV019066]	1.62	0.318	0.19	EC50 ([2]; P. berghei sporozoites, HepG2, 48 h, read-out: Liver Stage EC50): 0.31 µM; EC50 fold-shifts in resistant lines relative to parent clones [3]: > 5 fold
CC(C)c1cccc(C(NC(=O)C2Cc3ccccc3CN2C(=O)c2cccc(N3CCOCC3)c2)C2CCCC2)c1 (stereo not drawn) [MMV028038]	0.287	5.36	9.92	EC50 fold-shift, ATP4-Mut2 vs parent [5]: 5 ×
CCN(CC)S(=O)(=O)c1ccc(-c2csc(Nc3ccc(C)c(C)c3)n2)cc1 [MMV009108]	0.445	4.79	5.15	EC50 fold-shift, ATP4-Mut2 vs parent [5]: 23 ×; EC50 fold-shift, ATP4-Mut3 vs parent [6]: 5.2 ×
O=C(Nc1ccsc1C(=O)NC1CCCCC1)c1ccc(F)cc1 [MMV665939]	1.35	> 5	–	EC50 fold-shift, PfATP4-Mut2 compared with 3D7 ([5]; loss of efficacy): 18.9 ×; EC50 fold-shift, PfATP4-Mut1 compared with 3D7 [7]: 16.6 ×
CN(C)CCCN(C)C(=O)C1Cc2cc(-c3ccccc3)ccc2N1S(=O)(=O)c1ccccc1 (stereo not drawn) [MMV028895]	0.253	–	–	cross-resistance to resistant parasites generated by MMV007564 [8]: exhibited cross-resistance; EC50 fold-shift, other Dd2 clones compared with 3D7, average ([3]; Dd2-derived clones, average): 5.5 ×
